# From ChEMBL document CHEMBL2417389, “Synthesis and optimization of novel (3S,5R)-5-(2,2-dimethyl-5-oxo-4-phenylpiperazin-1-yl)piperidine-3-carboxamides as orally active renin inhibitors” (Bioorg Med Chem, 2013)
# Changes are numbered by the printed parent chain. Calls of active or inactive are those of the source. No cut-off for these calls is given here.
# Legend:
# Renin [1] = biological target: T1, Renin (Macaca fascicularis, UniProt Q6DLS0); assay: Inhibition of cynomolgus monkey plasma renin assessed as angiotensin 1 level after 60 mins by competitive radioimmunoassay
# T1 sequence (Q6DLS0 whole entry): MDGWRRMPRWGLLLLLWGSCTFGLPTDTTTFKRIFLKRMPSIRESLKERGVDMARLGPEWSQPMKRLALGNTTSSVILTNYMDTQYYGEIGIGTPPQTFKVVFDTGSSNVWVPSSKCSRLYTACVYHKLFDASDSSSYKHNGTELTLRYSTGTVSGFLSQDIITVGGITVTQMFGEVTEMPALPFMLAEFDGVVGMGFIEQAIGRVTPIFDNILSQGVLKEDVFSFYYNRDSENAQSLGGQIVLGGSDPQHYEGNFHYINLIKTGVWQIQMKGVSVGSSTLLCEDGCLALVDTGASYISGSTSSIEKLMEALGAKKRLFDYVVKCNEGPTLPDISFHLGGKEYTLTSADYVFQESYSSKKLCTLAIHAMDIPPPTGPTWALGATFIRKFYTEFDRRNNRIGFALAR
# Renin [2] = biological target: T2, Renin (Homo sapiens, UniProt P00797); assay: Inhibition of trypsin-activated human recombinant renin using (Arg-Glu(EDANS)-Ile-His-Pro-Phe-His-Leu-Val-Ile-His-Thr-Lys(DABCYL)-Arg) as substrate incubated for 10 mins prior to substrate addition measured after 90 mins by fluorescence assay
# T2 sequence (P00797 whole entry): T1 sequence (Q6DLS0 whole entry) with A68T, L214I, A235S
# [3] = biological target: T3, Renin (Macaca fascicularis) (UniProt Q6DLS0); assay: Ratio of compound IC50 to Aliskiren hemifumarate IC50 for cynomolgus monkey plasma renin
# T3 sequence (whole entry): T1 sequence (Q6DLS0 whole entry)
# [4] = AUC (0 to 24 hrs) in cynomolgus monkey at 3 mg/kg, po; assay type: ADME, organism-based, Macaca fascicularis; set-up: time < 24 hr, dose 3 mg/kg, route oral; details: plasma
# [5] = AUC (0 to 24 hrs) in Sprague-Dawley rat at 10 mg/kg, po; assay type: ADME, organism-based; set-up: time < 24 hr, dose 10 mg/kg, route oral; details: plasma
# hERG (KCNH2) = hERG (KCNH2) (Homo sapiens, UniProt Q12809); assay: Inhibition of human ERG channel at 30 uM by patch clamp technique
# CYP2D6 = CYP2D6 (Homo sapiens, UniProt P10635); assay: Inhibition of CYP2D6 (unknown origin) at 10 uM; assay type: ADME
# CYP3A4 = CYP3A4 (Homo sapiens, UniProt P08684); assay: Inhibition of CYP3A4 (unknown origin) at 10 uM; assay type: ADME
# Cynomolgus monkey [6] = assay: Antihypertensive activity in cynomolgus monkey assessed as reduction in mean arterial pressure at 10 mg/kg, po measured for 24 hrs post dose; assay type: functional, organism-based; set-up: dose 10 mg/kg; details: Macaca fascicularis, Artery
# Rattus norvegicus [7] = assay: Antihypertensive activity in double transgenic rat assessed as reduction in mean arterial pressure at 30 mg/kg, po measured for 48 hrs post dose; assay type: functional, organism-based; set-up: dose 30 mg/kg; details: Artery
# [8] = AUC (0 to 24 hrs) in cynomolgus monkey at 10 mg/kg, po; assay type: ADME, organism-based, Macaca fascicularis; set-up: time < 24 hr, dose 10 mg/kg, route oral; details: plasma
# Cynomolgus monkey [9] = assay: Antihypertensive activity in po dosed cynomolgus monkey assessed as reduction in mean arterial pressure administered 3 days post furosemide-challenge measured after 24 hrs; assay type: functional, organism-based; details: Macaca fascicularis; Artery
# Renin (Homo sapiens) = biological target: T4, Renin (Homo sapiens) (UniProt P00797); assay: Ratio of compound IC50 to Aliskiren hemifumarate IC50 for human plasma renin
# T4 sequence (whole entry): T1 sequence (Q6DLS0 whole entry) with A68T, L214I, A235S
# Cavia porcellus [10] = species on record: Cavia porcellus; assay: Cardiotoxicity in guinea pig assessed as maximum dV/dt in right ventricular papillary muscle at 30 uM by glass microelectrode method relative to baseline; assay type: toxicity, Muscle tissue
# Cavia porcellus [11] = species on record: Cavia porcellus; assay: Cardiotoxicity in guinea pig assessed as action potential duration at 90% repolarization of right ventricular papillary muscle at 30 uM by glass microelectrode method relative to baseline; assay type: toxicity, Muscle tissue
# Rattus norvegicus [12] = assay: Antihypertensive activity in double transgenic rat assessed as reduction in mean arterial pressure at 30 mg/kg, po after 24 hrs; assay type: functional, organism-based; set-up: dose 30 mg/kg; details: Artery
# [13] = Half life in cynomolgus monkey at 10 mg/kg, po and 1 mg/kg, iv; assay type: ADME, organism-based, Macaca fascicularis; details: in vivo
# [14] = Volume of distribution at steady state in cynomolgus monkey at 10 mg/kg, po and 1 mg/kg, iv; assay type: ADME, organism-based, Macaca fascicularis; details: in vivo, read-out: Vdss
# [15] = Cmax in cynomolgus monkey at 10 mg/kg, po and 1 mg/kg, iv; assay type: ADME, organism-based, Macaca fascicularis; details: in vivo
# [16] = Clearance in cynomolgus monkey at 10 mg/kg, and 1 mg/kg, iv; assay type: ADME, organism-based, Macaca fascicularis; details: in vivo
# [17] = Oral bioavailability in cynomolgus monkey at 10 mg/kg; assay type: ADME, organism-based, Macaca fascicularis; details: in vivo
# [18] = Half life in Sprague-Dawley rat at 30 mg/kg, po and 1 mg/kg, iv; assay type: ADME, organism-based; details: in vivo
# [19] = Volume of distribution at steady state in Sprague-Dawley rat at 30 mg/kg, po and 1 mg/kg, iv; assay type: ADME, organism-based; details: in vivo, read-out: Vdss
# [20] = Clearance in Sprague-Dawley rat at 30 mg/kg, po and 1 mg/kg, iv; assay type: ADME, organism-based; details: in vivo
# [21] = AUC (0 to 24 hrs) in Sprague-Dawley rat at 30 mg/kg, po; assay type: ADME, organism-based; set-up: time < 24 hr, dose 30 mg/kg, route oral; details: plasma
# [22] = Oral bioavailability in Sprague-Dawley rat at 30 mg/kg; assay type: ADME, organism-based; details: in vivo
# [23] = Cmax in Sprague-Dawley rat at 30 mg/kg, po and 1 mg/kg, iv; assay type: ADME, organism-based; details: in vivo
# Salmonella typhimurium [24] = assay: Genotoxicity in Salmonella typhimurium TA100 by Ames assay; assay type: toxicity, organism-based; details: salmonella enterica subsp. enterica serovar typhimurium
# Salmonella typhimurium [25] = assay: Genotoxicity in Salmonella typhimurium TA98 by Ames assay; assay type: toxicity, organism-based; details: salmonella enterica subsp. enterica serovar typhimurium
# [26] = Plasma protein binding in rat by ultracentrifugation method; assay type: ADME, cell-free; details: read-out: PPB (converted)
# [27] = Plasma protein binding in monkey by ultracentrifugation method; assay type: ADME, cell-free, Macaca mulatta; details: rhesus monkey, read-out: PPB (converted)
# [28] = Plasma protein binding in human by ultracentrifugation method; assay type: ADME, cell-free; details: read-out: PPB (converted)
# [29] = Metabolic stability in rat liver microsomes assessed as compound remaining after 30 mins; assay type: ADME, Microsome; details: read-out: Stability
# [30] = Metabolic stability in monkey liver microsomes assessed as compound remaining after 30 mins; assay type: ADME, Macaca mulatta, Microsome; details: rhesus monkey, read-out: Stability
# [31] = Metabolic stability in human liver microsomes assessed as compound remaining after 30 mins; assay type: ADME, Microsome; details: read-out: Stability
# [32] = Lipophilicity, log D of the compound at pH 7.4; assay type: physicochemical; details: buffer
# Renin [33] = biological target: T2, Renin; assay: Inhibition of human plasma renin by competitive radioimmunoassay
# Chain of hERG (KCNH2) (Q12809 whole entry): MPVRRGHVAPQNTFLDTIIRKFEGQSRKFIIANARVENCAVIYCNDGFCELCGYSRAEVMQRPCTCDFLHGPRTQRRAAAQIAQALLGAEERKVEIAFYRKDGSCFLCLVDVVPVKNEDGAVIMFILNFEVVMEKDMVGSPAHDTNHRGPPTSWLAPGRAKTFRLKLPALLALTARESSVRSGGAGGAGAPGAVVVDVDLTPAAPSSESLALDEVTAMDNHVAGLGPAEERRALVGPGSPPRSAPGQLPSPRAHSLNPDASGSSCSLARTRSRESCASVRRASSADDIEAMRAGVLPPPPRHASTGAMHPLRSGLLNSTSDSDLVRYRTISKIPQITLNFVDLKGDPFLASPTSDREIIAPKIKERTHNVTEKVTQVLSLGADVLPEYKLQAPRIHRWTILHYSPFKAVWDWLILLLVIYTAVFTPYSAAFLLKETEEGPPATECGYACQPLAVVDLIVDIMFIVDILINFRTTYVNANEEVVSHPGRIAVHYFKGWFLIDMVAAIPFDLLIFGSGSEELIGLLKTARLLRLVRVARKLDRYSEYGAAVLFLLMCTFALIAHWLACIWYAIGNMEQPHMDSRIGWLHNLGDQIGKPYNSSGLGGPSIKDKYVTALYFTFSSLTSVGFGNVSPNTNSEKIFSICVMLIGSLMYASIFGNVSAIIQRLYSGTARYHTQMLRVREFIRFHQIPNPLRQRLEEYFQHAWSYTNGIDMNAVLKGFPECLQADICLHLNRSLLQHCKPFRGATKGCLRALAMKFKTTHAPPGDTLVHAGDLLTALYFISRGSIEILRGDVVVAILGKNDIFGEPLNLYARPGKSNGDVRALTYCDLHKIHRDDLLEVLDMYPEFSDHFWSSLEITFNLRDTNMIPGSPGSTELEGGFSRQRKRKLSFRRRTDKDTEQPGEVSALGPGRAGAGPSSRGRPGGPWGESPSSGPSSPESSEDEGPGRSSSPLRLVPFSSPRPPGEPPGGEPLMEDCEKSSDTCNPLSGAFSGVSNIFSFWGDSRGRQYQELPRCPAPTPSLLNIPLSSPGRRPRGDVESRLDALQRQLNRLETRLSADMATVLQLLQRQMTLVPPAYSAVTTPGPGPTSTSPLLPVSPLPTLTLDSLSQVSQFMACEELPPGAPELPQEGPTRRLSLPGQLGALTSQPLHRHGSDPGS
# Chain of CYP3A4 (P08684 whole entry): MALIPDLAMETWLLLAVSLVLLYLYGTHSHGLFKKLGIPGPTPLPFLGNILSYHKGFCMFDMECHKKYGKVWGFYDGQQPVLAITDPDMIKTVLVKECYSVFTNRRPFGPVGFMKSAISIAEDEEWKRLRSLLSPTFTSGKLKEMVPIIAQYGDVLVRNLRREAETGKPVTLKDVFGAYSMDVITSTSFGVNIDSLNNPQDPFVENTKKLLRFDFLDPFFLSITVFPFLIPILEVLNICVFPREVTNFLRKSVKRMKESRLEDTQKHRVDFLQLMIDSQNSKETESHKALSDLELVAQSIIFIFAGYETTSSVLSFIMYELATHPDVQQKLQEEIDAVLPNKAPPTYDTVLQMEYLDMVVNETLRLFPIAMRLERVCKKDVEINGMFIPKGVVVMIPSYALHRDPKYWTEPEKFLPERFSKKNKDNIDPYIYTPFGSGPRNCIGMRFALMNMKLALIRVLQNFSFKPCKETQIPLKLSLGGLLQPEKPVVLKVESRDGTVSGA
# Chain of CYP2D6 (P10635 whole entry): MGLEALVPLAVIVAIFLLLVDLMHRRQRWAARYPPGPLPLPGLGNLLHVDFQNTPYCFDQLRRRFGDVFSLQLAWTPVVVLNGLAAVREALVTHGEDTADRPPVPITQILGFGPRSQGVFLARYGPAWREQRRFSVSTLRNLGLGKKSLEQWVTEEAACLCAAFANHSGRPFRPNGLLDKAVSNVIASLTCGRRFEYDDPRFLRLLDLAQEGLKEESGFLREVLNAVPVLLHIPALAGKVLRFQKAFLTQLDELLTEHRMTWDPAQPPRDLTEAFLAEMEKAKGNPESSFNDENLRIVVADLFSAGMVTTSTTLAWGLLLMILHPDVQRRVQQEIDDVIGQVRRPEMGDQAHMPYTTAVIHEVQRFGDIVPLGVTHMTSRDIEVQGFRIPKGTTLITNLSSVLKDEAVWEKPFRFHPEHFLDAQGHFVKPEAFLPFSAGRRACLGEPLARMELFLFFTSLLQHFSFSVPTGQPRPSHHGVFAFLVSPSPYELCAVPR
smiles,measurement,setting,value
CC[C@@H](NC(=O)[C@@H]1CNC[C@H](N2CC(=O)N(c3ccccc3Cl)CC2(C)C)C1)c1ccccc1F,IC50,Renin [1],11 nM
same,IC50,Renin [2],3.3 nM
same,Ratio IC50,[3],2.3
CC[C@@H](NC(=O)[C@@H]1CNC[C@H](N2CC(=O)N(c3ccccc3Cl)CC2(C)C)C1)c1cccc(F)c1,IC50,Renin [1],14 nM
same,IC50,Renin [2],1.8 nM
same,Ratio IC50,[3],2.8
CC[C@@H](NC(=O)[C@@H]1CNC[C@H](N2CC(=O)N(c3ccccc3Cl)CC2(C)C)C1)c1ccccc1.O=C(O)/C=C/C(=O)O,Ratio IC50,[3],1.8
same,AUC(0-t) at 24 h,[4],730 ng·h/mL
same,AUC(0-t) at 24 h,[5],1500 ng·h/mL
CC(C)C[C@@H](NC(=O)[C@@H]1CNC[C@H](N2CC(=O)N(c3ccccc3Cl)CC2(C)C)C1)c1ccc(F)cn1.O=C(O)/C=C/C(=O)O,IC50,Renin [1],9.7 nM
same,IC50,Renin [2],1 nM
same,Ratio IC50,[3],2.1
same,inhibition at 30 µM,hERG (KCNH2),27%
same,inhibition at 10 µM,CYP2D6,8.3%
same,inhibition at 10 µM,CYP3A4,22%
same,AUC,Cynomolgus monkey [6],-194 mmHg.hr
same,AUC,Rattus norvegicus [7],-535 mmHg.hr
same,AUC(0-t) at 24 h,[8],2580 ng·h/mL
CC(C)CC(CC(C)C)NC(=O)[C@@H]1CNC[C@H](N2CC(=O)N(c3ccccc3Cl)CC2(C)C)C1,Ratio IC50,[3],2.8
CC[C@@H](NC(=O)[C@@H]1CNC[C@H](N2CC(=O)N(c3ccccc3Cl)CC2(C)C)C1)c1ccc(Cl)cc1,IC50,Renin [1],55 nM
same,IC50,Renin [2],5.2 nM
same,Ratio IC50,[3],11
CC(C)C[C@@H](NC(=O)[C@@H]1CNC[C@H](N2CC(=O)N(c3ccccc3Cl)CC2(C)C)C1)c1ccno1,IC50,Renin [1],3.3 nM
same,IC50,Renin [2],1.1 nM
same,Ratio IC50,[3],0.6
CC(C)C[C@@H](NC(=O)[C@@H]1CNC[C@H](N2CC(=O)N(c3ccccc3Cl)CC2(C)C)C1)c1ccccc1,Ratio IC50,[3],1
CC(C)C[C@@H](NC(=O)[C@@H]1CNC[C@H](N2CC(=O)N(c3ccccc3Cl)CC2(C)C)C1)c1ncco1,IC50,Renin [1],8.3 nM
same,IC50,Renin [2],1.9 nM
same,Ratio IC50,[3],1.4
CC(C)C[C@@H](NC(=O)[C@@H]1CNC[C@H](N2CC(=O)N(c3ccccc3Cl)CC2(C)C)C1)c1cncc(F)c1,IC50,Renin [1],6.9 nM
same,IC50,Renin [2],1.7 nM
same,Ratio IC50,[3],0.8
CC(C)C[C@@H](NC(=O)[C@@H]1CNC[C@H](N2CC(=O)N(c3ccccc3Cl)CC2(C)C)C1)c1ccccn1,IC50,Renin [1],17 nM
same,IC50,Renin [2],1.4 nM
same,Ratio IC50,[3],3.6
CC[C@@H](NC(=O)[C@@H]1CNC[C@H](N2CC(=O)N(c3ccccc3Cl)CC2(C)C)C1)c1cccc(Cl)c1,IC50,Renin [1],25 nM
same,IC50,Renin [2],2.3 nM
same,Ratio IC50,[3],5
CC(C)C[C@@H](NC(=O)[C@@H]1CNC[C@H](N2CC(=O)N(c3ccccc3Cl)CC2(C)C)C1)c1cccnc1,Ratio IC50,[3],0.9
CCOC[C@@H](CC(C)C)NC(=O)[C@@H]1CNC[C@H](N2CC(=O)N(c3ccccc3Cl)CC2(C)C)C1.O=C(O)/C=C/C(=O)O,Ratio IC50,[3],0.5
same,AUC(0-t) at 24 h,[4],60 ng·h/mL
Cc1ccc(F)cc1N1CC(C)(C)N([C@H]2CNC[C@@H](C(=O)N[C@H](CC(C)C)c3ccc(F)cn3)C2)CC1=O,IC50,Renin [1],16 nM
same,IC50,Renin [2],1.3 nM
same,Ratio IC50,[3],2.1
same,inhibition at 30 µM,hERG (KCNH2),40%
same,inhibition at 10 µM,CYP2D6,11%
same,inhibition at 10 µM,CYP3A4,44%
same,AUC,Rattus norvegicus [7],-606 mmHg.hr
Cc1ccccc1N1CC(C)(C)N([C@H]2CNC[C@@H](C(=O)N[C@H](CC(C)C)c3ccc(F)cn3)C2)CC1=O.O=C(O)/C=C/C(=O)O,IC50,Renin [1],7 nM
same,IC50,Renin [2],1.6 nM
same,Activity,Cynomolgus monkey [9],Dose-dependent effect
same,Ratio IC50,Renin (Homo sapiens),1.2
same,Ratio IC50,[3],0.9
same,Activity,Cavia porcellus [10],-11.6%
same,Activity,Cavia porcellus [11],-1%
same,Activity,Rattus norvegicus [12],Active
same,half-life,[13],7.9 h
same,Vd,[14],5.4 L/kg
same,Cmax,[15],604 ng/mL
same,clearance,[16],9.5 mL/min/kg
same,bioavailability,[17],25%
same,half-life,[18],5.4 h
same,Vd,[19],11 L/kg
same,clearance,[20],80 mL/min/kg
same,AUC(0-t) at 24 h,[21],1100 ng·h/mL
same,bioavailability,[22],20%
same,Cmax,[23],204 ng/mL
same,Activity,Salmonella typhimurium [24],Non-toxic
same,Activity,Salmonella typhimurium [25],Non-toxic
same,fraction unbound,[26],0.37
same,fraction unbound,[27],0.45
same,fraction unbound,[28],0.62
same,remaining at 0.5 h,[29],89%
same,remaining at 0.5 h,[30],84%
same,remaining at 0.5 h,[31],100%
same,logD,[32],2
same,IC50,Renin [33],3.6 nM
same,inhibition at 30 µM,hERG (KCNH2),5.2%
same,inhibition at 10 µM,CYP2D6,1%
same,inhibition at 10 µM,CYP3A4,30%
same,AUC,Cynomolgus monkey [6],-267 mmHg.hr
same,AUC,Rattus norvegicus [7],-581 mmHg.hr
same,AUC(0-t) at 24 h,[8],3190 ng·h/mL
CCC[C@@H](NC(=O)[C@@H]1CNC[C@H](N2CC(=O)N(c3ccccc3Cl)CC2(C)C)C1)c1ccccc1,Ratio IC50,[3],2
CC(C)C[C@@H](NC(=O)[C@@H]1CNC[C@H](N2CC(=O)N(c3ccccc3Cl)CC2(C)C)C1)C(O)C(C)C (stereo partly drawn),Ratio IC50,[3],0.8
CC[C@@H](NC(=O)[C@@H]1CNC[C@H](N2CC(=O)N(c3ccccc3Cl)CC2(C)C)C1)c1ccc(F)cc1,IC50,Renin [1],19 nM
same,IC50,Renin [2],2.4 nM
same,Ratio IC50,[3],3.7
